Laboratory results as given in US20070026080A1, “Manufacturing process for tigecycline” (Wyeth, priority 2005, published 2007).
“And” between values parts separate entries of the source, which are not always exact repeats. Identical values can stand only once. Marks after values point to notes of the source that are not given here.

Assay: Strength and degradation profile of tigecycline 20 mg/mL bulk solutions by reversed phase HPLC (effect of temperature, time, pH, dissolved oxygen; Runs A to O)
Format: physicochemical
Settings: 20 mg/mL
Method: The contents of the sample vials are dissolved in diluent. The sample solution is diluted, if necessary, and chromatographed on a reversed phase column using gradient elution. Impurities are determined by comparing the impurity peak areas in the sample preparation chromatogram to the average area of tigecycline peaks in the standard preparation chromatograms obtained concomitantly.
Chromatographic Column—Length about 15 cm, inside diameter about 4.6 mm, packed with Inertsil ODS2, 5 μm size particles or equivalent.
Detector—Ultraviolet spectrophotometric detector capable of operating at 248 nm with a sensitivity of about 0.5 absorbance units full scale.
The results of additional studies to investigate the effect of processing parameters such as temperature, time, and dissolved oxygen content on the purity profile of tigecycline solutions using the following materials, methods and procedures are presented in Tables A to O.
The experiments were run in plastic glove bags under normal laboratory light conditions. Plastic glove boxes will be used to control the headspace of the beakers. The batch size was 200 mL. • 1. Prepare the glove bag with a mixture of nitrogen and air to achieve an oxygen level in the solution as per the design. • 2. Place the jacketed beaker on the magnetic stirrer. Connect it to the cooler. Set the cooler to the desired set point. • 3. Add 200 mL of SWFI in to the beaker. Allow equilibrating. Measure the temperature and oxygen content. When it reaches the desired condition, add accurately weighed API and mix until dissolved. If necessary use spatula to aid dissolution. For pH adjustments, use 4 mL of either 0.1N NaOH or 0.1N HCl and 196 mL of WFI for manufacture. • 4. After complete dissolution, Transfer about 5.5 mL of Solution in vials and stopper them. These vials will be stoppered at the appropriate headspace conditions. Place the vials in appropriate temperature conditions. • 5. Sample the vials at 1, 4, 8, 10, 12 and 24 hours. Send the samples for analysis. Freeze the 10, 12 and 24 samples at −20° C. for analysis the following day. • 6. Measure pH and record color of the solution at each time point. Results
The 1-hour samples were taken directly from the beakers. Samples for later time points were collected in stoppered vials processed in the atmosphere of the bag in order to simulate the headspace conditions then placed in water baths or refrigerator to maintain there respective temperature conditions. This was done to maintain safety in the lab. Disposable plastic glove bags require constant flow of a mixture of nitrogen and air to maintain headspace oxygen level that will result in the desired dissolved oxygen (DO) content in the sample. The pH of samples was measured at each sample points.
Strength and degradation profile was analyzed by HPLC as described above. […] Degradation was slightly higher at higher temperature condition.

[1] = Run #D, 8° C., pH 7.7, Oxygen 2.0 mg/L, hours 1,4,8,10,12,24 at r6-r11, after 4 hours
[2] = Run #D, 8° C., pH 7.7, Oxygen 2.0 mg/L, hours 1,4,8,10,12,24 at r6-r11, after 8 hours
[3] = Run #D, 8° C., pH 7.7, Oxygen 2.0 mg/L, hours 1,4,8,10,12,24 at r6-r11, after 10 hours
[4] = Run #D, 8° C., pH 7.7, Oxygen 2.0 mg/L, hours 1,4,8,10,12,24 at r6-r11, after 12 hours
[5] = Run #D, 8° C., pH 7.7, Oxygen 2.0 mg/L, hours 1,4,8,10,12,24 at r6-r11, after 24 hours
[6] = Run #D, 8° C., pH 7.7, Oxygen 2.0 mg/L, hours 1,4,8,10,12,24 at r17-r22, after 1 hours
[7] = Run #D, 8° C., pH 7.7, Oxygen 2.0 mg/L, hours 1,4,8,10,12,24 at r17-r22, after 4 hours
[8] = Run #D, 8° C., pH 7.7, Oxygen 2.0 mg/L, hours 1,4,8,10,12,24 at r17-r22, after 8 hours
[9] = Run #D, 8° C., pH 7.7, Oxygen 2.0 mg/L, hours 1,4,8,10,12,24 at r17-r22, after 10 hours
[10] = Run #D, 8° C., pH 7.7, Oxygen 2.0 mg/L, hours 1,4,8,10,12,24 at r17-r22, after 12 hours
[11] = Run #D, 8° C., pH 7.7, Oxygen 2.0 mg/L, hours 1,4,8,10,12,24 at r17-r22, after 24 hours
[12] = Run #E, 5° C., Oxygen = 2.0 mg/mL, hours 1,4,8,12,24 at r6-r10
[13] = Run #E, 5° C., Oxygen = 2.0 mg/mL, hours 1,4,8,12,24 at r16-r20, 1 hours
[14] = Run #E, 5° C., Oxygen = 2.0 mg/mL, hours 1,4,8,12,24 at r16-r20, 4 hours
[15] = Run #E, 5° C., Oxygen = 2.0 mg/mL, hours 1,4,8,12,24 at r16-r20, 8 hours
[16] = Run #E, 5° C., Oxygen = 2.0 mg/mL, hours 1,4,8,12,24 at r16-r20, 12 hours
[17] = Run #E, 5° C., Oxygen = 2.0 mg/mL, hours 1,4,8,12,24 at r16-r20, 24 hours
[18] = Run #F, 2° C., hours 1,4,8,12,24 at r5-r9, 1 h after preparation
[19] = Run #F, 2° C., hours 1,4,8,12,24 at r5-r9, 4 h after preparation

CN(C)c1cc(NC(=O)CNC(C)(C)C)c(O)c2c1C[C@H]1C[C@H]3[C@H](N(C)C)C(O)=C(C(N)=O)C(=O)[C@@]3(O)C(O)=C1C2=O [Tigecycline]
Strength (Run #D, 8° C., pH 7.7, Oxygen 2.0 mg/L, hours 1,4,8,10,12,24 at r6-r11, after 1 hours): 19.168 mg/mL | RRT 0.55 MW = 583 [1]: 0.16% | RRT 0.74 Epimer [1]: 0.18% | Strength [1]: 18.918 mg/mL | RRT 0.55 MW = 583 [2]: 0.23% | Strength [2]: 18.915 mg/mL | RRT 0.55 MW = 583 [3]: 0.27% | RRT 0.74 Epimer [3]: 0.25% | Strength [3]: 19.292 mg/mL | RRT 0.55 MW = 583 [4]: 0.29% | RRT 0.74 Epimer [4]: 0.24% | Strength [4]: 18.728 mg/mL | RRT 0.55 MW = 583 [5]: 0.36% | RRT 0.74 Epimer [5]: 0.27% | Strength [5]: 18.050 mg/mL | RRT 1.45 [6]: 0.07% | RRT 1.67 MW = 556 [6]: 0.10% | RRT 1.85 MW = 597 [6]: 0.08% | Total [6]: 0.65% | RRT 1.45 [7]: 0.19% | RRT 1.67 MW = 556 [7]: 0.21% | Total [7]: 1.09% | RRT 1.45 [8]: 0.06% | RRT 1.67 MW = 556 [8]: 0.37% | RRT 1.85 MW = 597 [8]: 0.14% | Total [8]: 1.57% | RRT 1.67 MW = 556 [9]: 0.24% | Total [9]: 2.27% | RRT 1.45 [10]: 0.10% | RRT 1.67 MW = 556 [10]: 0.28% | RRT 1.85 MW = 597 [10]: 0.09% | Total [10]: 2.47% | RRT 1.67 MW = 556 [11]: 0.51% | RRT 1.85 MW = 597 [11]: 0.10% | Total [11]: 4.32% | RRT 0.55 MW = 583 [12]: 0.43% and 0.07% and 0.17% and 0.22% and 0.33% | Strength [12]: 17.950 mg/mL and 19.261 mg/mL and 19.215 mg/mL and 18.970 mg/mL and 18.475 mg/mL | RRT 0.58 [13]: 0.08% | RRT 0.74 Epimer [13]: 0.16% | RRT 0.76 [13]: 0.05% | RRT 1.45 [13]: 0.08% | RRT 1.85 MW = 597 [13]: 0.08% | Total [13]: 0.67% | RRT 0.58 [14]: 0.07% | RRT 0.74 Epimer [14]: 0.17% | RRT 1.85 MW = 597 [14]: 0.07% | Total [14]: 0.96% | RRT 0.74 Epimer [15]: 0.19% | RRT 0.76 [15]: 0.11% | RRT 1.45 [15]: 0.10% | RRT 1.85 MW = 597 [15]: 0.09% | Total [15]: 1.58% | RRT 0.74 Epimer [16]: 0.24% | RRT 0.76 [16]: 0.12% | RRT 1.85 MW = 597 [16]: 0.11% | Total [16]: 3.15% | RRT 0.58 [17]: 0.05% | RRT 0.74 Epimer [17]: 0.28% | RRT 0.76 [17]: 0.13% | RRT 1.45 [17]: 0.07% | RRT 1.85 MW = 597 [17]: 0.12% | Total [17]: 4.23% | RRT 1.67 MW = 556 (Run #E, 5° C., Oxygen = 2.0 mg/mL, hours 1,4,8,12,24 at r16-r20, at 24 h Mino is co-eluting, 1 hours): 0.08% | RRT 1.67 MW = 556 (Run #E, 5° C., Oxygen = 2.0 mg/mL, hours 1,4,8,12,24 at r16-r20, at 24 h Mino is co-eluting, 4 hours): 0.16% | RRT 1.67 MW = 556 (Run #E, 5° C., Oxygen = 2.0 mg/mL, hours 1,4,8,12,24 at r16-r20, at 24 h Mino is co-eluting, 8 hours): 0.26% | RRT 1.67 MW = 556 (Run #E, 5° C., Oxygen = 2.0 mg/mL, hours 1,4,8,12,24 at r16-r20, at 24 h Mino is co-eluting, 12 hours): 0.39% | RRT 1.67 MW = 556 (Run #E, 5° C., Oxygen = 2.0 mg/mL, hours 1,4,8,12,24 at r16-r20, at 24 h Mino is co-eluting, 24 hours): 0.44^a % | Strength (Run #F, 2° C., Oxygen = 1.0 mg/mL, hours 1,4,8,12,24 at r5-r9, 1 h after preparation): 18.733 mg/mL | Strength (Run #F, 2° C., Oxygen = 1.0 mg/mL, hours 1,4,8,12,24 at r5-r9, 4 h after preparation): 18.700 mg/mL | Strength (Run #F, 2° C., Oxygen = 1.0 mg/mL, hours 1,4,8,12,24 at r5-r9, 8 h after preparation): 18.729 mg/mL | Strength (Run #F, 2° C., Oxygen = 1.0 mg/mL, hours 1,4,8,12,24 at r5-r9, 12 h after preparation): 18.543 mg/mL | Strength (Run #F, 2° C., Oxygen = 1.0 mg/mL, hours 1,4,8,12,24 at r5-r9, 24 h after preparation): 18.818 mg/mL | RRT 0.58 [18]: 0.08% | RRT 0.74 Epimer [18]: 0.15% | RRT 1.45 [18]: 0.07% | RRT 1.64 Mino [18]: 0.10% | RRT 1.85 MW = 597 [18]: 0.07% | Total [18]: 0.47% | RRT 0.58 [19]: 0.07% | RRT 0.74 Epimer [19]: 0.16% | RRT 1.64 Mino [19]: 0.09% | RRT 1.85 MW = 597 [19]: 0.09% | Total [19]: 0.71% | RRT 0.74 Epimer (Run #F, 2° C., hours 1,4,8,12,24 at r5-r9, 8 h after preparation): 0.17%
